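All cell lines were grown in 96-well plates and treated with compound for 48 hours. The concentration for 50% growth inhibition is given as GI50.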 Active and inactive are the calls of the source. Cut-off read from the data, not from the text of the source: active = GI50 up to about 1.1 µM and inactive = higher.
Columns and labels:
Experiment in all cases: NCI tumour cell line growth inhibition, 48 h
[1] = tested on: SK-MEL-2
[2] = tested on: SF-295
[3] = tested on: NCI-H226
[4] = tested on: SN12C
[5] = tested on: SK-OV-3
[6] = tested on: MOLT-4
[7] = tested on: NCI-H522
[8] = tested on: SF-539
[9] = tested on: CCRF-CEM
[10] = tested on: OVCAR-5
[11] = tested on: HCC 2998
[12] = tested on: OVCAR-3
[13] = tested on: SW-620
[14] = tested on: TK-10
[15] = tested on: NCI-H460
[16] = tested on: RXF 393
[17] = tested on: T47D
[18] = tested on: MDA-MB-231
[19] = tested on: MDA-N

Measured: GI50

NS(=O)(=O)c1cc2c(cc1Cl)NC(C(=O)c1cc(=O)c3ccc(O)cc3o1)=NS2(=O)=O
inactive: [1] > 100 µM | [2] > 100 µM | [3] > 100 µM | [4] > 100 µM | [5] > 100 µM | [6] > 100 µM | [7] > 100 µM | [8] > 100 µM | [9] > 100 µM | [10] > 100 µM | [11] > 100 µM | [12] > 100 µM | [13] > 100 µM | [14] > 100 µM | [15] > 100 µM | [16] > 100 µM

CN(C)C1(N(C)C)Oc2c(c(=O)n(C)c(=O)n2C)C(c2ccccc2)C1(F)F (stereo not given)
inactive: [1] > 100 µM | [2] > 100 µM | [3] > 100 µM | [5] > 100 µM | [17] > 100 µM | [6] > 100 µM | [18] > 100 µM | [9] > 100 µM | [10] > 100 µM | [11] > 100 µM | [12] > 100 µM | [13] > 100 µM | [14] > 100 µM | [15] > 100 µM | [16] > 100 µM

COc1ccc2nc3n(c2c1)C(=O)c1ccccc1-3
inactive: [1] > 100 µM | [2] > 100 µM | [3] > 100 µM | [4] > 100 µM | [5] 15.1 µM | [6] > 100 µM | [7] > 100 µM | [8] > 100 µM | [9] > 100 µM | [10] > 100 µM | [19] > 100 µM | [11] > 100 µM | [12] > 100 µM | [13] > 100 µM | [14] > 100 µM | [15] > 100 µM | [16] > 100 µM

Nc1ccn(CCOC(c2ccccc2)P(=O)(O)O)c(=O)n1 (stereo not given)
inactive: [1] > 100 µM | [2] > 100 µM | [3] > 100 µM | [4] > 100 µM | [5] > 100 µM | [6] > 100 µM | [7] > 100 µM | [8] > 100 µM | [9] > 100 µM | [10] > 100 µM | [11] > 100 µM | [12] > 100 µM | [13] > 100 µM | [14] > 100 µM | [15] > 100 µM | [16] > 100 µM

COC(=O)c1cc(C)n(NC(=O)OC(C)(C)C)c1C
inactive: [1] > 100 µM | [2] > 100 µM | [3] > 100 µM | [4] > 100 µM | [5] > 100 µM | [6] > 100 µM | [7] > 100 µM | [8] > 100 µM | [9] > 100 µM | [10] > 100 µM | [11] > 100 µM | [12] > 100 µM | [13] > 100 µM | [14] > 100 µM | [15] > 100 µM | [16] > 100 µM

— ChEMBL document CHEMBL1201862, “PubChem BioAssay data set” (2004)
